Patent US12234221B2, “Pyridine carboxamide compounds for inhibiting NAV1.8” (Lieber Institute, Inc., priority 2018, dated 2025)
pIC50: −log10 of the molar value.

Target: T1, human Nav1.8 (hNav1.8) ion channel (Homo sapiens, UniProt Q9Y5Y9)
T1 construct: expressed in transfected cells; host or cells: HEK293
Test: Nav1.8 channel inhibition, estimated IC50 (one or more of: fluorescence inhibition assay, PatchXpress, IonFlux HT automated patch clamp)
Format: cell-based
Settings: HEK293 cells stably expressing hNav1.8; method used per compound not stated; read-out: Activity range (estimated IC50)
How it was run: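 HEK293 cells stably expressing hNav1.8 with β1/β2 subunits; IC50 from the fluorescence assay and/or automated whole-cell patch clamp (PatchXpress, IonFlux HT). Fluorescence: ANG-2 Na dye, 5 min compound preincubation (0.02–5 μM, 1% DMSO) with 30 μM ouabain, stimulation by 10 μM deltamethrin, peak signal fit logistically. PatchXpress: holding potential reset to Vhalf, inhibition normalized to control/washout currents.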

T1 sequence (Q9Y5Y9 whole entry): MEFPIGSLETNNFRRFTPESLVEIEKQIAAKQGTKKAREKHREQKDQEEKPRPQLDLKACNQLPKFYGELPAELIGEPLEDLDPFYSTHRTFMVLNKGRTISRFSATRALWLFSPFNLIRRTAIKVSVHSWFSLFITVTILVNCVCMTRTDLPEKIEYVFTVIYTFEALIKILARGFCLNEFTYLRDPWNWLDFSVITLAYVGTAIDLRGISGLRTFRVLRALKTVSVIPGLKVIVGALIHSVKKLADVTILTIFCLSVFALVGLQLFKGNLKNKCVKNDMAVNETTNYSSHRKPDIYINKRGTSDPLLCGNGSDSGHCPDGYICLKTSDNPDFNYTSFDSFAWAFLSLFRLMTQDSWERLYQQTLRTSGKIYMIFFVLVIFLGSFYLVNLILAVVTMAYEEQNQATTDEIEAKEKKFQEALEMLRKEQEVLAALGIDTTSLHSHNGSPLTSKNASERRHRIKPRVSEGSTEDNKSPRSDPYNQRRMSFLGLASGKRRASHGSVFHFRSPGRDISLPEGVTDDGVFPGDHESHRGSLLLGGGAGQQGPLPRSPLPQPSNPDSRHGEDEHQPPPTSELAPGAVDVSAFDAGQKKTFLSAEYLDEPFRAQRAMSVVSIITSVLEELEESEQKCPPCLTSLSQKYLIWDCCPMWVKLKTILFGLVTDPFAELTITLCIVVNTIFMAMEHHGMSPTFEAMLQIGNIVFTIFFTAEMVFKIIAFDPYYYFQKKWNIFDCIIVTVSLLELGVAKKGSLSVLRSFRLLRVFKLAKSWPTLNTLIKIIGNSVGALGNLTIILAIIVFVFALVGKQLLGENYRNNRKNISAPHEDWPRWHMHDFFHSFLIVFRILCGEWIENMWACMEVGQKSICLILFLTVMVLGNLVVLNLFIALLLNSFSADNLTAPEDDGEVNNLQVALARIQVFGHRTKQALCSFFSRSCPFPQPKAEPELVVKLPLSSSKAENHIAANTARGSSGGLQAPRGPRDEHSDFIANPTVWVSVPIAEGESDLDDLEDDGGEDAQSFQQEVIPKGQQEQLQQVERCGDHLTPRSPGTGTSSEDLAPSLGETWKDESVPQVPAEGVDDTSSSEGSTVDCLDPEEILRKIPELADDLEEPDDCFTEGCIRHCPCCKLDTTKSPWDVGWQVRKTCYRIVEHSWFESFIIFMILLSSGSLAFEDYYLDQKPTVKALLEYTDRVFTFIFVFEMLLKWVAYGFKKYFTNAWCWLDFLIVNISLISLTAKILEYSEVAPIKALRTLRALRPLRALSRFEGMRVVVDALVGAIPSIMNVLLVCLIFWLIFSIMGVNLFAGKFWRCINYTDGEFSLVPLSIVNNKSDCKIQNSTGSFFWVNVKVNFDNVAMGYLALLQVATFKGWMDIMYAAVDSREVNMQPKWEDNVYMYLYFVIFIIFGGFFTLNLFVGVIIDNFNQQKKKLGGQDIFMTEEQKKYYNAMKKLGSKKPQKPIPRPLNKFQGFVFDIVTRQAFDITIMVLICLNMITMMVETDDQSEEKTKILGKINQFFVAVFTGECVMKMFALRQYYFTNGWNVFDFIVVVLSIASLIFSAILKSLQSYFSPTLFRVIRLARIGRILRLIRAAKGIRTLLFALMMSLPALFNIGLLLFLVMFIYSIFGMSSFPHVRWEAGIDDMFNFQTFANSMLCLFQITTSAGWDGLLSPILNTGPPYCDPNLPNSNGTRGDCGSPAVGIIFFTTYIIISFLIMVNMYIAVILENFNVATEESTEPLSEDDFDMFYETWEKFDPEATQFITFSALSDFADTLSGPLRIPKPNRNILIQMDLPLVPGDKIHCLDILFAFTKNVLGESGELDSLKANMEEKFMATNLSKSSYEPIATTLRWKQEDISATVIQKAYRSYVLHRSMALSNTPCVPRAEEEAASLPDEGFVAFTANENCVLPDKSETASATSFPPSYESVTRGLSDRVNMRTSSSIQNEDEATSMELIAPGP

SMILES | pIC50
O=C(Nc1ccncc1)c1cc(C(F)(F)F)cnc1Oc1ccc(OC(F)(F)F)cc1 [Example 127, N-(4-pyridyl)-2-[4-(trifluoromethoxy)phenoxy]-5-(trifluoromethyl)pyridine-3-carboxamide] | > 6.30
O=C(Nc1ccnnc1)c1cc(C(F)(F)F)cnc1Oc1ccc(OC(F)(F)F)cc1 [Example 128, N-pyridazin-4-yl-2-[4-(trifluoromethoxy)phenoxy]-5-(trifluoromethyl)pyridine-3-carboxamide] | > 6.30
CS(C)(=O)=Nc1cccc(NC(=O)c2cc(C(F)(F)F)cnc2Oc2ccc(OC(F)(F)F)cc2)c1 [Example 129, N-[3-[[dimethyl(oxo)-λ^6-sulfanylidene]amino]phenyl]-2-[4-(trifluoromethoxy)phenoxy]-5-(trifluoromethyl)pyridine-3-carboxamide] | < 6.00
O=C(Nc1ccc[n+]([O-])c1)c1cc(C(F)(F)F)cnc1Oc1ccc(OC(F)(F)F)cc1 [Example 132, N-(1-oxidopyridin-1-ium-3-yl)-2-[4-(trifluoromethoxy)phenoxy]-5-(trifluoromethyl)pyridine-3-carboxamide] | > 6.30
Cc1cc(F)ccc1Oc1ncc(C(F)(F)F)cc1C(=O)Nc1ccc[n+]([O-])c1 [Example 133, 2-(4-fluoro-2-methyl-phenoxy)-N-(1-oxidopyridin-1-ium-3-yl)-5-(trifluoromethyl)pyridine-3-carboxamide] | < 6.00
COc1cc(F)ccc1Oc1ncc(C(F)(F)F)cc1C(=O)Nc1ccc[n+]([O-])c1 [Example 134, 2-(4-fluoro-2-methoxy-phenoxy)-N-(1-oxidopyridin-1-ium-3-yl)-5-(trifluoromethyl)pyridine-3-carboxamide] | < 6.00
O=C(Nc1ccc[n+]([O-])c1)c1cc(C(F)(F)F)cnc1Oc1ccc(F)cc1F [Example 135, 2-(2,4-difluorophenoxy)-N-(1-oxidopyridin-1-ium-3-yl)-5-(trifluoromethyl)pyridine-3-carboxamide] | < 6.00
O=C(Nc1ccc[n+]([O-])c1)c1cc(C(F)(F)F)cnc1Oc1ccc(OC(F)F)cc1 [Example 136, 3-(2-(4-(difluoromethoxy)phenoxy)-5-(trifluoromethyl)nicotinamido)pyridine 1-oxide] | > 6.30
COc1ccc(Oc2ncc(C(F)(F)F)cc2C(=O)Nc2ccc[n+]([O-])c2)c(OC)c1 [Example 137, 3-(2-(2,4-dimethoxyphenoxy)-5-(trifluoromethyl)nicotinamido)pyridine 1-oxide] | > 6.30
COc1ccc(Oc2ncc(C(F)(F)F)cc2C(=O)Nc2ccc[n+]([O-])c2)c(Cl)c1 [Example 138, 3-(2-(2-chloro-4-methoxyphenoxy)-5-(trifluoromethyl)nicotinamido)pyridine 1-oxide] | > 6.30
O=C(Nc1cc[n+]([O-])cc1)c1cc(C(F)(F)F)cnc1Oc1ccc(OC(F)(F)F)cc1 [Example 141, N-(1-oxidopyridin-1-ium-4-yl)-2-[4-(trifluoromethoxy)phenoxy]-5-(trifluoromethyl)pyridine-3-carboxamide] | > 6.30
CS(=O)(=O)c1cccc(NC(=O)c2cc(C(F)(F)F)cnc2Oc2ccc(OC(F)(F)F)cc2Cl)c1 [Example 142, 2-[2-chloro-4-(trifluoromethoxy)phenoxy]-N-(3-methylsulfonylphenyl)-5-(trifluoromethyl)pyridine-3-carboxamide] | > 6.30
CCS(=O)(=O)c1cccc(NC(=O)c2cc(C(F)(F)F)cnc2Oc2ccc(OC(F)(F)F)cc2Cl)c1 [Example 143, 2-[2-chloro-4-(trifluoromethoxy)phenoxy]-N-(3-ethylsulfonylphenyl)-5-(trifluoromethyl)pyridine-3-carboxamide] | 6.00 to 6.30
CN=S(C)(=O)c1cccc(NC(=O)c2cc(C(F)(F)F)cnc2Oc2ccc(OC(F)(F)F)cc2Cl)c1 (stereo not shown) [Example 144, 2-[2-chloro-4-(trifluoromethoxy)phenoxy]-N-[3-(N,S-dimethylsulfonimidoyl)phenyl]-5-(trifluoromethyl)pyridine-3-carboxamide] | > 6.30
N#Cc1cccc(NC(=O)c2cc(C(F)(F)F)cnc2Oc2ccc(OC(F)(F)F)cc2Cl)c1 [Example 146, 2-[2-chloro-4-(trifluoromethoxy)phenoxy]-N-(3-cyanophenyl)-5-(trifluoromethyl)pyridine-3-carboxamide] | > 6.30
Cn1cc(NC(=O)c2cc(C(F)(F)F)cnc2Oc2ccc(OC(F)(F)F)cc2Cl)cn1 [Example 147, 2-[2-chloro-4-(trifluoromethoxy)phenoxy]-N-(1-methylpyrazol-4-yl)-5-(trifluoromethyl)pyridine-3-carboxamide] | > 6.30
NC(=O)c1cccc(NC(=O)c2cc(C(F)(F)F)cnc2Oc2ccc(OC(F)(F)F)cc2Cl)c1 [Example 148, N-(3-carbamoylphenyl)-2-[2-chloro-4-(trifluoromethoxy)phenoxy]-5-(trifluoromethyl)pyridine-3-carboxamide] | 6.00 to 6.30
CC(=O)c1cccc(NC(=O)c2cc(C(F)(F)F)cnc2Oc2ccc(OC(F)(F)F)cc2Cl)c1 [Example 149, N-(3-acetylphenyl)-2-[2-chloro-4-(trifluoromethoxy)phenoxy]-5-(trifluoromethyl)pyridine-3-carboxamide] | < 6.00
Cn1ccc(NC(=O)c2cc(C(F)(F)F)cnc2Oc2ccc(OC(F)(F)F)cc2Cl)cc1=O [Example 150, 2-[2-chloro-4-(trifluoromethoxy)phenoxy]-N-(1-methyl-2-oxo-4-pyridyl)-5-(trifluoromethyl)pyridine-3-carboxamide] | > 6.30
CN(C)C(=O)c1cccc(NC(=O)c2cc(C(F)(F)F)cnc2Oc2ccc(OC(F)(F)F)cc2Cl)c1 [Example 151, 2-[2-chloro-4-(trifluoromethoxy)phenoxy]-N-[3-(dimethylcarbamoyl)phenyl]-5-(trifluoromethyl)pyridine-3-carboxamide] | > 6.30
CS(=O)(=O)c1ccc(NC(=O)c2cc(C(F)(F)F)cnc2Oc2ccc(OC(F)(F)F)cc2Cl)cc1 [Example 152, 2-[2-chloro-4-(trifluoromethoxy)phenoxy]-N-(4-methylsulfonylphenyl)-5-(trifluoromethyl)pyridine-3-carboxamide] | > 6.30
CN(C)S(=O)(=O)c1cccc(NC(=O)c2cc(C(F)(F)F)cnc2Oc2ccc(OC(F)(F)F)cc2Cl)c1 [Example 154, 2-[2-chloro-4-(trifluoromethoxy)phenoxy]-N-[3-(dimethylsulfamoyl)phenyl]-5-(trifluoromethyl)pyridine-3-carboxamide] | < 6.00
O=C(Nc1ccc(F)c(F)c1)c1cc(C(F)(F)F)cnc1Oc1ccc(OC(F)(F)F)cc1Cl [Example 155, 2-[2-chloro-4-(trifluoromethoxy)phenoxy]-N-(3,4-difluorophenyl)-5-(trifluoromethyl)pyridine-3-carboxamide] | > 6.30
COc1ccc(NC(=O)c2cc(C(F)(F)F)cnc2Oc2ccc(OC(F)(F)F)cc2Cl)cn1 [Example 156, 2-[2-chloro-4-(trifluoromethoxy)phenoxy]-N-(6-methoxy-3-pyridyl)-5-(trifluoromethyl)pyridine-3-carboxamide] | 6.00 to 6.30
O=C(Nc1cncnc1)c1cc(C(F)(F)F)cnc1Oc1ccc(OC(F)(F)F)cc1Cl [Example 157, 2-[2-chloro-4-(trifluoromethoxy)phenoxy]-N-pyrimidin-5-yl-5-(trifluoromethyl)pyridine-3-carboxamide] | 6.00 to 6.30
